Test systems include 786-0; A549; ACHN; COLO 205; HCT-116; HCT-15; HL-60; Hs-578T; IGROV-1; K562; M14; MCF7; MDA-MB-231; NCI-H226; NCI/ADR-RES; OVCAR-3; OVCAR-5; OVCAR-8; SK-MEL-5; T47D.
What all share (assay): NCI-60 cell line screen, 48 h

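Exposure lasted 48 hours, with cells grown in 96-well plates and compounds tested at five concentrations. Abbreviation: GI50, concentration required for 50% inhibition of growth.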 Active and inactive are the calls of the source. No stated cut-off is given here; in the data, active = GI50 up to about 1.1 µM and inactive = higher. A value given as a limit tells only on which side of the number the result lay.

For the compound `CCOC(=O)c1c(NS(=O)(=O)c2ccc(C)cc2)sc2c1CCCC2`, the GI50 was 35.2 µM (inactive) with 786-0; 24.5 µM (inactive) with A549; 29.9 µM (inactive) in the assay on ACHN; 19 µM (inactive) in the assay on COLO 205; 21.4 µM (inactive) with HCT-116; 15.9 µM in the assay on HCT-15. The GI50 in the assay on HL-60 was 42.7 µM (inactive); with Hs-578T, 26.9 µM (inactive); with IGROV-1, 27.2 µM (inactive); in the assay on K562 it was 20.6 µM (inactive); in the assay with M14 it was 35.8 µM (inactive); in the assay on MCF7 it was 24.4 µM (inactive). Besides, the GI50 in the assay on MDA-MB-231 was 22.5 µM (inactive); in the assay with NCI-H226 it was 40.8 µM (inactive); in the assay with NCI/ADR-RES it was 27 µM (inactive); in the assay on OVCAR-3, 15 µM (inactive); in the assay on OVCAR-5 it was 65.3 µM (inactive); in the assay with OVCAR-8, 35.7 µM (inactive). Besides, the values for the GI50 in the assay on SK-MEL-5 and in the assay on T47D were 31.8 µM (inactive) and 43.3 µM (inactive), respectively.
For the compound `CC(=O)OCC1OC(OC2CC3C(C)(C)C(=O)CC[C@]3(C)C3CC[C@]45C[C@]4(CCC5[C@@H](C)CC(O)C(O)C(C)(C)O)[C@]23C)C(O)C(O)C1O` (stereo not given in full), the GI50 in the assay with 786-0 is 13.6 µM (inactive); in the assay on A549 it was 17.3 µM (inactive); with ACHN it was 16.4 µM (inactive); in the assay with COLO 205, 5.85 µM (inactive); in the assay on HCT-116, 7.1 µM (inactive); with HCT-15, 17.6 µM. Further, the GI50 was 2.25 µM (inactive) in the assay on HL-60; 10.4 µM (inactive) with Hs-578T; 11.1 µM (inactive) with IGROV-1; 5.52 µM (inactive) in the assay with K562; 10.3 µM (inactive) with M14; 4.78 µM (inactive) with MCF7. Further, the GI50 in the assay on MDA-MB-231 was 6.44 µM (inactive); with NCI-H226, 16.5 µM (inactive); in the assay with NCI/ADR-RES, 18.3 µM (inactive); in the assay with OVCAR-3, 12.7 µM (inactive); in the assay with OVCAR-5 it was 16.7 µM (inactive); with OVCAR-8, 13.5 µM (inactive). In addition, the GI50 in the assay with SK-MEL-5 is 7.66 µM (inactive); in the assay on T47D, 5.68 µM (inactive).
For `CC(C)=CCC[C@@H](C)C1=C(Nc2ccccc2)C(=O)C(C)=C(O)C1=O`, the GI50 in the assay on 786-0 was 4.75 µM (inactive); in the assay with A549, 2.56 µM (inactive); in the assay with ACHN, 2.56 µM (inactive); in the assay with COLO 205, 2.74 µM (inactive); with HCT-116, 1.53 µM (inactive); in the assay on HCT-15, 0.875 µM. The GI50 in the assay with HL-60 was 0.303 µM (active); in the assay with Hs-578T, 2.34 µM (inactive); in the assay on IGROV-1, 3.01 µM (inactive); in the assay on K562, 2.92 µM (inactive); in the assay with M14 it was 3.13 µM (inactive); with MCF7, 4.29 µM (inactive). Further, the GI50 in the assay on MDA-MB-231 is 2.89 µM (inactive); with NCI-H226, 3.13 µM (inactive); in the assay with NCI/ADR-RES, 0.815 µM (active); with OVCAR-3, 2.21 µM (inactive); in the assay with OVCAR-5 it was 8.95 µM (inactive); in the assay with OVCAR-8, 2.1 µM (inactive). The GI50 in the assay on SK-MEL-5 is 2 µM (inactive); with T47D it was 6.7 µM (inactive).
Take `S=c1[nH]nc(Cc2ccccc2)c(=S)[nH]1`: the GI50 was > 100 µM (inactive) in the assay on 786-0; > 69.8 µM (inactive) in the assay with A549; 4.8 µM (inactive) in the assay with ACHN; > 79.6 µM (inactive) in the assay with COLO 205; > 61 µM (inactive) with HCT-116; over 62.1 µM with HCT-15. Also, the GI50 was > 54.8 µM (inactive) with HL-60; 33 µM (inactive) in the assay on Hs-578T; > 53.1 µM (inactive) with IGROV-1; 61.1 µM (inactive) in the assay on K562; > 78.9 µM (inactive) with M14; 55.8 µM (inactive) in the assay on MCF7. Further, the GI50 in the assay with MDA-MB-231 is 26.1 µM (inactive); with NCI-H226, > 95.3 µM (inactive); with NCI/ADR-RES, 49.4 µM (inactive); in the assay on OVCAR-3 it was > 61.7 µM (inactive); in the assay on OVCAR-5 it was > 50.2 µM (inactive); in the assay with OVCAR-8, > 61.2 µM (inactive). Further, the GI50 was 46.7 µM (inactive) in the assay on SK-MEL-5 and 21.6 µM (inactive) in the assay on T47D.
Turning to `C=C[C@@H](OCOCC[Si](C)(C)C)[C@@H](CC)OC(CCCOC(=O)C(C)(C)C)OC` (stereo not given in full), the GI50 was 25 µM (inactive) with 786-0; 31.5 µM (inactive) in the assay with A549; 36.7 µM (inactive) in the assay with ACHN; 29.9 µM (inactive) in the assay with COLO 205; 21 µM (inactive) with HCT-116; 22.1 µM with HCT-15. The GI50 with HL-60 is 18.4 µM (inactive); in the assay on Hs-578T, 27.1 µM (inactive); in the assay on IGROV-1, 49 µM (inactive); in the assay with K562, 60.4 µM (inactive); in the assay with M14, 36.4 µM (inactive); in the assay with MCF7, 21.8 µM (inactive). Moreover, the GI50 in the assay with MDA-MB-231 is 66.1 µM (inactive); in the assay with NCI-H226, 21.9 µM (inactive); in the assay on NCI/ADR-RES, 30.1 µM (inactive); in the assay with OVCAR-3 it was 40.9 µM (inactive); in the assay on OVCAR-5, 21.7 µM (inactive); in the assay on OVCAR-8 it was 38.5 µM (inactive). In addition, the values for the GI50 in the assay with SK-MEL-5 and in the assay on T47D were 31.3 µM (inactive) and 19.4 µM (inactive), respectively.
For `Nc1cc(O)c2c(c1O)C(=O)C=CC2=O`, the GI50 with 786-0 is 7.89 µM (inactive); in the assay with A549 it was 19.6 µM (inactive); with ACHN, 12.3 µM (inactive); with COLO 205, 6.62 µM (inactive); in the assay with HCT-116 it was 5.19 µM (inactive); in the assay with HCT-15, 7.41 µM. In addition, the GI50 with HL-60 was 2.21 µM (inactive); in the assay with Hs-578T it was 26.5 µM (inactive); with IGROV-1 it was 15.2 µM (inactive); in the assay on K562, 5.78 µM (inactive); with M14, 7.76 µM (inactive); with MCF7, 7.13 µM (inactive). Besides, the GI50 in the assay on MDA-MB-231 is 13.6 µM (inactive); in the assay with NCI-H226, 67.1 µM (inactive); with NCI/ADR-RES it was 10 µM (inactive); in the assay on OVCAR-3, 2.64 µM (inactive); with OVCAR-5 it was 20.8 µM (inactive); in the assay on OVCAR-8 it was 8.24 µM (inactive). Further, the GI50 in the assay on SK-MEL-5 was 8.26 µM (inactive); in the assay on T47D it was 13.2 µM (inactive).
Consider `CCNCCCCNCCCCNCCCCNCCCCNCC`, for which the GI50 in the assay on 786-0 was 34.8 µM (inactive); in the assay on A549 it was 20.7 µM (inactive); with ACHN, > 89.9 µM (inactive); in the assay on COLO 205, 43.8 µM (inactive); with HCT-116 it was 11.4 µM (inactive); in the assay with HCT-15 it was over 100 µM. The GI50 with HL-60 is 9.04 µM (inactive); in the assay with Hs-578T, 2.84 µM (inactive); with IGROV-1, 41.9 µM (inactive); with K562 it was 57 µM (inactive); in the assay with M14, > 100 µM (inactive); in the assay on MCF7 it was > 100 µM (inactive). In addition, the GI50 is > 100 µM (inactive) in the assay on MDA-MB-231; > 100 µM (inactive) in the assay with NCI-H226; > 100 µM (inactive) in the assay with NCI/ADR-RES; > 100 µM (inactive) in the assay with OVCAR-3; 52.5 µM (inactive) in the assay with OVCAR-5; > 100 µM (inactive) with OVCAR-8. The GI50 in the assay with SK-MEL-5 was 53.5 µM (inactive); in the assay on T47D, 6.17 µM (inactive).
Consider `O=c1c(-c2nc3ccccc3c3ccccc3c2=O)nc2ccccc2c2ccccc12`, for which the GI50 with 786-0 was 36 µM (inactive); with A549 it was 48 µM (inactive); with ACHN, 36.1 µM (inactive); in the assay on COLO 205, 38.4 µM (inactive); in the assay on HCT-116, 23.8 µM (inactive); with HCT-15, 32.7 µM. The GI50 with HL-60 was 20 µM (inactive); in the assay with Hs-578T it was 51.4 µM (inactive); with IGROV-1, 44.9 µM (inactive); in the assay with K562 it was 32.9 µM (inactive); in the assay with M14, 35.2 µM (inactive); in the assay on MCF7, 38 µM (inactive). The GI50 with MDA-MB-231 is 34 µM (inactive); in the assay on NCI-H226, > 100 µM (inactive); with NCI/ADR-RES it was 34 µM (inactive); with OVCAR-3 it was 28.4 µM (inactive); in the assay with OVCAR-5, 80.4 µM (inactive); in the assay with OVCAR-8, 27.7 µM (inactive). For the same compound, the figures for the GI50 in the assay with SK-MEL-5 and in the assay on T47D were 24.8 µM (inactive) and 32.6 µM (inactive), respectively.
As to `COc1cc(C2SCC(=O)N2c2ccc(-c3ccc(-n4c(-c5ccccc5)nc5ccccc5c4=O)cc3)cc2)ccc1O` (stereo not given), the GI50 is 29.6 µM (inactive) with 786-0; > 100 µM (inactive) with A549; > 100 µM (inactive) in the assay on ACHN; > 100 µM (inactive) in the assay on COLO 205; 47.8 µM (inactive) in the assay on HCT-116; 25.8 µM with HCT-15. Further, the GI50 with HL-60 is 65.3 µM (inactive); in the assay with Hs-578T it was 40.1 µM (inactive); in the assay on IGROV-1, > 100 µM (inactive); in the assay with K562 it was 46.7 µM (inactive); in the assay with M14, > 100 µM (inactive); with MCF7 it was 59.4 µM (inactive). Besides, the GI50 was > 100 µM (inactive) with MDA-MB-231; 30.9 µM (inactive) with NCI-H226; 13.6 µM (inactive) in the assay with NCI/ADR-RES; 61.5 µM (inactive) in the assay on OVCAR-3; 48.3 µM (inactive) in the assay on OVCAR-5; 96.6 µM (inactive) in the assay with OVCAR-8. Besides, the GI50 in the assay with SK-MEL-5 was 26.7 µM (inactive); with T47D, 14.4 µM (inactive).
With `O=c1cccc(C2CC(CO)C3CCCCN3C2)[nH]1` (stereo not given), the GI50 is > 100 µM (inactive) in the assay on 786-0; > 100 µM (inactive) with A549; > 100 µM (inactive) with ACHN; > 100 µM (inactive) in the assay with COLO 205; > 100 µM (inactive) with HCT-116; over 100 µM with HCT-15. Besides, the GI50 with HL-60, in the assay on Hs-578T, in the assay with IGROV-1, in the assay with K562, in the assay with M14 and with MCF7 was > 100 µM (inactive) each time. Also, the GI50 in the assay on MDA-MB-231, with NCI-H226, in the assay with NCI/ADR-RES, in the assay with OVCAR-3, in the assay on OVCAR-5 and in the assay with OVCAR-8 was > 100 µM (inactive) throughout. For the same compound, the GI50 in the assay with SK-MEL-5 and in the assay with T47D was > 100 µM (inactive) in each case.

Values taken from ChEMBL document CHEMBL1201862, “PubChem BioAssay data set” (2004).
